# Measurements reported in article PMC10695616, “Rational design peptide inhibitors of Cyclophilin D as a potential treatment for acute pancreatitis” (Medicine, 2023).
# Ends that are not written are not given here.
# Molecular target: T1, Human recombinant CypD (Homo sapiens, UniProt P30405)
# T1 construct: purchased Beyotime (Shanghai, China)
# Assay: chymotrypsin coupled prolyl-isomerase inhibitory assay
# Assay type: biochemical
# Details: Suc-AAPF-AMC substrate, peptide 0.001 to 100 μM, 25 °C
# Method: The method for measuring half-maximal inhibitory concentration (IC50) values of the peptides against CypD was described previously as chymotrypsin coupled prolyl-isomerase assay. Human recombinant CypD was purchased from Beyotime (Shanghai, China). The substrate solution for inhibitory assay was prepared as 100 μM Suc-AAPF-AMC (Chymotrypsin Substrate II, Sigma–Aldrich, Shanghai, China) with varied concentration of selected peptide (varied from 0.001 to 100 μM), 15 μg/mL CypD, and 0.5 M LiCl/2,2,2-trifluoroethanol. Alpha-chymotrypsin from bovine pancreas was purchased from Sigma (Shanghai, China) and dissolved in 0.001 M HCl, the concentration for chymotrypsin was prepared to 5 mg/mL. For inhibitory assay, the 96-well plate was filled with 150 μL of the substrate solution and incubated at 25 °C for 1 hour, followed by adding 40 μL of the chymotrypsin solution. The fluorescent changes under 380 nm was captured every 5 seconds for 300 seconds using Mltrospec 3100. The IC50 value was calculated which indicated the peptide concentration needed for obtaining 50% of […] inhibitory activity.
# The binding affinity of selected peptides against CypD was tested using a modified inhibitory assay.[37] […] The selected 5 peptides were preincubated with CypD to validate their capability for blocking CypD activity. […] Compound C-9 was previously reported as a strong binder of CypD,[37] therefore, we adopted compound C-9 as a reference sample to evaluate the binding activity of the designed peptides.
# T1 sequence (P30405 30-207): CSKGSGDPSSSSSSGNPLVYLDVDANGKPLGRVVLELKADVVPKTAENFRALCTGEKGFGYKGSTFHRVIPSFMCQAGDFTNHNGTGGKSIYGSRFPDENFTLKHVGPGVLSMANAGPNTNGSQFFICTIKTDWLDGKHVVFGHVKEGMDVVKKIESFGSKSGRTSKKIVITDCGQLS
row,IC50 [µM],Substance
1,2.46,WACKN [WACKN]
2,10.5,WACKQ [WACKQ]
3,0.37,WACLQ [WACLQ]
4,2.63,WACNQ [WACNQ]
